Legend:
Format in all cases: in vivo
[1] = tested on: soybean (Glycine max L., var. Pella 86, SOY); assay: Post-emerge greenhouse test, crop damage rating; conditions: 14 days after application
How it was run: (§1)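 Plants at the 2-3 leaf stage, sown 8-21 days earlier, were track-sprayed post-emergence with compound in acetone plus 0.25% v/v non-ionic surfactant at 63-1000 g ai/ha (187 l/ha). Damage was rated at 14 days on a 0-100 scale (0 none, 100 all plants dead), for both crop injury and weed control.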

[2] = tested on: redroot pigweed (Amaranthus retroflexus, AMARE); assay: Post-emerge greenhouse herbicide test, phytotoxicity rating; conditions: 14 days after application
How it was run: as §1

[3] = tested on: green foxtail (Setaria viridis, SETVI); assay: as above; conditions: 14 days after application
How it was run: as §1

[4] = tested on: lambsquarters (Chenopodium album, CHEAL); assay: as above; conditions: 14 days after application
How it was run: as §1

[5] = tested on: large crabgrass (Digitaria sanguinalis, DIGSA); assay: as above; conditions: 14 days after application
How it was run: as §1

[6] = tested on: velvetleaf (Abutilon theophrasti, ABUTH); assay: as above; conditions: 14 days after application
How it was run: as §1

[7] = tested on: Johnsongrass (Sorghum halepense, SORHA); assay: as above; conditions: 14 days after application
How it was run: as §1

[8] = tested on: barnyardgrass (Echinochloa crusgalli, ECHCG); assay: as above; conditions: 14 days after application
How it was run: as §1

[9] = tested on: ivyleaf morningglory (Ipomoea hederacea, IPOHE); assay: as above; conditions: 14 days after application
How it was run: as §1

[10] = tested on: sicklepod (Cassia obtusifolia, CASOB); assay: as above; conditions: 14 days after application
How it was run: as §1

[11] = tested on: upland rice (Oryza sp., var.Tebonnet, RICE); assay: Pre-emerge greenhouse test, crop damage rating; conditions: 14 days after application, rating scale 0-100
How it was run: (§2)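 Seeds sown in sandy loam one day before track-sprayer application of acetone solutions at 125–1000 g ai/ha (187 l/ha), then surface-watered to incorporate and bottom-watered. Injury scored visually at 14 days on a 0–100 scale (0 no damage, 100 complete death).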

[12] = tested on: field corn (Zea mays L., var. Dekalb 535, CORN); assay: Pre-emerge greenhouse test, crop damage rating; conditions: 14 days after application, rating scale 0-100
How it was run: as §2

[13] = tested on: redroot pigweed (Amaranthus retroflexus, AMARE); assay: Pre-emerge greenhouse herbicide test, phytotoxicity rating; conditions: 14 days after application, rating scale 0-100
How it was run: as §2

[14] = tested on: green foxtail (Setaria viridis, SETVI); assay: as above; conditions: 14 days after application, rating scale 0-100
How it was run: as §2

[15] = tested on: lambsquarters (Chenopodium album, CHEAL); assay: as above; conditions: 14 days after application, rating scale 0-100
How it was run: as §2

[16] = tested on: large crabgrass (Digitaria sanguinalis, DIGSA); assay: as above; conditions: 14 days after application, rating scale 0-100
How it was run: as §2

[17] = tested on: velvetleaf (Abutilon theophrasti, ABUTH); assay: as above; conditions: 14 days after application, rating scale 0-100
How it was run: as §2

[18] = tested on: Johnsongrass (Sorghum halepense, SORHA); assay: as above; conditions: 14 days after application, rating scale 0-100
How it was run: as §2

[19] = tested on: common ragweed (Ambrosia artemisiifolia L., AMBEL); assay: as above; conditions: 14 days after application, rating scale 0-100
How it was run: as §2

[20] = tested on: barnyardgrass (Echinochloa crusgalli, ECHCG); assay: as above; conditions: 14 days after application, rating scale 0-100
How it was run: as §2

[21] = tested on: ivyleaf morningglory (Ipomoea hederacea, IPOHE); assay: as above; conditions: 14 days after application, rating scale 0-100
How it was run: as §2

[22] = tested on: sicklepod (Cassia obtusifolia, CASOB); assay: as above; conditions: 14 days after application, rating scale 0-100
How it was run: as §2

[23] = tested on: common ragweed (Ambrosia artemisiifolia L., AMBEL); assay: Post-emerge greenhouse herbicide test, phytotoxicity rating; conditions: 14 days after application
How it was run: as §1

[24] = tested on: soybean (Glycine max L., var. Pella 86, SOY); assay: Pre-emerge greenhouse test, crop damage rating; conditions: 14 days after application, rating scale 0-100
How it was run: as §2

[25] = tested on: upland rice (Oryza sp., var.Tebonnet, RICE); assay: Post-emerge greenhouse test, crop damage rating; conditions: 14 days after application
How it was run: as §1

[26] = tested on: field corn (Zea mays L., var. Dekalb 535, CORN); assay: Post-emerge greenhouse test, crop damage rating; conditions: 14 days after application
How it was run: as §1

## O=c1n(-c2cc(Oc3ccc([N+](=O)[O-])cc3)c(Cl)cc2F)c(=S)n2n1CCCC2 [Compound 8-8]
[1]; 63 g al/ha
  SOY crop damage rating (0-100): 25
[1]; 500 g al/ha
  SOY crop damage rating (0-100): 75
[2]; 63 g al/ha
  AMARE phytotoxicity rating (0-100): 95
[2]; 500 g al/ha
  AMARE phytotoxicity rating (0-100): 100
[3]; 63 g al/ha
  SETVI phytotoxicity rating (0-100): 20
[3]; 500 g al/ha
  SETVI phytotoxicity rating (0-100): 30
[4]; 63 g al/ha
  CHEAL phytotoxicity rating (0-100): 99
[4]; 500 g al/ha
  CHEAL phytotoxicity rating (0-100): 100
[5]; 63 g al/ha
  DIGSA phytotoxicity rating (0-100): 0
[5]; 500 g al/ha
  DIGSA phytotoxicity rating (0-100): 0
[6]; 63 g al/ha
  ABUTH phytotoxicity rating (0-100): 95
[6]; 500 g al/ha
  ABUTH phytotoxicity rating (0-100): 100
[7]; 63 g al/ha
  SORHA phytotoxicity rating (0-100): 10
[7]; 500 g al/ha
  SORHA phytotoxicity rating (0-100): 0
[8]; 63 g al/ha
  ECHCG phytotoxicity rating (0-100): 10
[8]; 500 g al/ha
  ECHCG phytotoxicity rating (0-100): 0
[9]; 63 g al/ha
  IPOHE phytotoxicity rating (0-100): 90
[9]; 500 g al/ha
  IPOHE phytotoxicity rating (0-100): 50
[10]; 63 g al/ha
  CASOB phytotoxicity rating (0-100): 40
[10]; 500 g al/ha
  CASOB phytotoxicity rating (0-100): 40
[11]; 125 g ai/ha
  crop damage rating RICE: 0
[11]; 500 g ai/ha
  crop damage rating RICE: 0
[12]; 125 g ai/ha
  crop damage rating CORN: 5
[12]; 500 g ai/ha
  crop damage rating CORN: 0
[13]; 125 g ai/ha
  phytotoxicity rating AMARE: 100
[13]; 500 g ai/ha
  phytotoxicity rating AMARE: 100
[14]; 125 g ai/ha
  phytotoxicity rating SETVI: 60
[14]; 500 g ai/ha
  phytotoxicity rating SETVI: 95
[15]; 125 g ai/ha
  phytotoxicity rating CHEAL: 0
[15]; 500 g ai/ha
  phytotoxicity rating CHEAL: 10
[16]; 125 g ai/ha
  phytotoxicity rating DIGSA: 40
[16]; 500 g ai/ha
  phytotoxicity rating DIGSA: 40
[17]; 125 g ai/ha
  phytotoxicity rating ABUTH: 90
[17]; 500 g ai/ha
  phytotoxicity rating ABUTH: 100
[18]; 125 g ai/ha
  phytotoxicity rating SORHA: 30
[18]; 500 g ai/ha
  phytotoxicity rating SORHA: 30
[19]; 125 g ai/ha
  phytotoxicity rating AMBEL: 0
[19]; 500 g ai/ha
  phytotoxicity rating AMBEL: 20
[20]; 125 g ai/ha
  phytotoxicity rating ECHCG: 0
[20]; 500 g ai/ha
  phytotoxicity rating ECHCG: 20
[21]; 125 g ai/ha
  phytotoxicity rating IPOHE: 0
[21]; 500 g ai/ha
  phytotoxicity rating IPOHE: 10
[22]; 125 g ai/ha
  phytotoxicity rating CASOB: 0
[22]; 500 g ai/ha
  phytotoxicity rating CASOB: 80
[23]; 63 g al/ha
  AMBEL phytotoxicity rating (0-100): 30
[23]; 500 g al/ha
  AMBEL phytotoxicity rating (0-100): 40
[24]; 125 g ai/ha
  crop damage rating SOY: 0
[24]; 500 g ai/ha
  crop damage rating SOY: 20
[25]; 63 g al/ha
  RICE crop damage rating (0-100): 0
[25]; 500 g al/ha
  RICE crop damage rating (0-100): 10
[26]; 63 g al/ha
  CORN crop damage rating (0-100): 10
[26]; 500 g al/ha
  CORN crop damage rating (0-100): 10
